One test concerns MEIS1 mRNA. Nature of the test: MEIS1 mRNA expression assay (Quantigene Singleplex) in MOLM14 cells.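 Note: MEIS1 transcript levels read by probe hybridization and normalized to RPL28 mRNA, with IC50 fitted to fold changes across a rising compound concentration series.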 The settings on record: Homo sapiens, MOLM-14, 48 h, 48 hours incubation. It is filed as cell-based, human.
Test [1] deals with menin/MLL (terbium chelate-labeled menin, FITC-MBM1 peptide) (Homo sapiens (Human), UniProt O00255). Put plainly: Menin/MLL homogenous time-resolved fluorescence (HTRF) assay.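 Note: IC50 from percent inhibition of HTRF signal, normalized between wells without competitor and wells with a saturating competitor that displaces FITC-MBM1 from His-tagged menin.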 Type of test: binding. The note with it: HTRF-30 min incubation IC50, 30 min incubation.
Chain of menin/MLL (terbium chelate-labeled menin, FITC-MBM1 peptide) (O00255 other isoform, or with tags, fused parts or gaps): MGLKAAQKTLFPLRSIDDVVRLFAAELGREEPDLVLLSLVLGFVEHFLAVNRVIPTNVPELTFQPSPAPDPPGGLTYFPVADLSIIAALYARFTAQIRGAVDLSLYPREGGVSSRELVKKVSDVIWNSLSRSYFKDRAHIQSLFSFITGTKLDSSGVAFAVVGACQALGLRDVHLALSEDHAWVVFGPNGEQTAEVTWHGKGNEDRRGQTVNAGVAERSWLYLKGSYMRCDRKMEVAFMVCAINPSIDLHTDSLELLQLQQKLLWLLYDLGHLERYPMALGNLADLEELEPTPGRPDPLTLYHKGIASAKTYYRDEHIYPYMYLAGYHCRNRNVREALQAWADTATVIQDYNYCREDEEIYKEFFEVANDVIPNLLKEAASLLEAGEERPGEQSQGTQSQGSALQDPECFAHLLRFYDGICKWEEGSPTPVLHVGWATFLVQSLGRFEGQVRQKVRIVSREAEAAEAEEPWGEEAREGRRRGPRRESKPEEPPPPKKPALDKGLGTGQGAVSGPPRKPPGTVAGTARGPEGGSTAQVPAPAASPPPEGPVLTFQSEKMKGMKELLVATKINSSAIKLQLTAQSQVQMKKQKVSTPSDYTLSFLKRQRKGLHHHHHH
The next test deals with KO-52 cells. Nature of the test: Proliferation assay (spheroid growth, 8 days), KO-52 control cell line. Type of test: cell-based, human. The settings on record: Homo sapiens, […], read-out: spheroid assay_OneTime KO-52 IC50. On the procedure:
(§1) The anti-proliferative effect of menin/MLL protein/protein interaction inhibitor test compounds was assessed in human leukemia cell lines. The cell line MOLM14 harbors a MLL translocation and expresses the MLL fusion protein MLL-AF9, respectively, as well as the wildtype protein from the second allele. OCI-AML3 cells that carry the NPM1c gene mutation were also tested. […] KO-52 was used as a control cell line containing two MLL (KMT2A) wildtype alleles in order to exclude compounds that display general cytotoxic effects.
(§2) KO-52 and OCI-AML3 cell lines were propagated in alpha-MEM (Sigma Aldrich) supplemented with 20% heat-inactivated fetal bovine serum (HyClone), 2 mM L-glutamine (Sigma Aldrich) and 50 μg/ml gentamycin (Gibco).
(§3) In order to assess the anti-proliferative effects, 200 MOLM14 cells, 200 OCI-AML3 cells or 300 KO-52 cells were seeded in 200 μl media per well in […] round bottom, ultra-low attachment plates (Costar, catalogue number 7007). Cell seeding numbers were chosen based on growth curves to ensure linear growth throughout the experiment. Test compounds were added at different concentrations and the DMSO content was normalized to 0.3%. Cells were incubated for 8 days at 37° C. and 5% CO2. Spheroid like growth was measured in real-time by live-cell imaging (IncuCyteZOOM, Essenbio, 4× objective) acquiring images at day 8. Confluence (%) as a measure of spheroid size was determined using an integrated analysis tool.
(§4) In order to determine the effect of the test compounds over time, the confluence in each well as a measure of spheroid size, was calculated. Confluence of the highest dose of a reference compound was used as baseline for the LC (Low control) and the confluence of DMSO treated cells was used as 0% cytotoxicity (High Control, HC).
(§5) GraphPad Prism(version 7.00) was used to calculate the IC50. Dose-response equation was used for the plot of % Effect vs Log 10 compound concentration with a variable slope and fixing the maximum to 100% and the minimum to 0%.

In a further test the test system is MOLM14 cells. Put plainly: Proliferation assay (spheroid growth, 8 days), MOLM14.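 Note: spheroid size read as confluence by live-cell imaging, compounds added at a range of concentrations with 0.3% DMSO, DMSO-treated wells = 0%, highest reference dose = low control.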 Type of test: cell-based, human. The note with it: Homo sapiens, MOLM-14, […], MOLM14, 8 days; read-out: spheroid assay_OneTime MOLM14 IC50.
For the next test, the system named is OCI-AML3 cells. Put plainly: Proliferation assay (spheroid growth, 8 days), OCI-AML3. It is filed as cell-based, human. The settings on record: Homo sapiens, OCI-AML-3, […], OCI-AML3, 8 days. As to the method:
as §1, §2, §3, §4, §5

Where a name gives a salt, the structure may show the parent alone. Where only a bound is given, the exact number is not on record here.

As for `CCN(C(=O)c1cc(F)ccc1Oc1nncnc1N1CCC2(C1)CN([C@@H](CN)C(C)C)C2)C(C)C` (single isomer, unassigned) [Compound 25, (*R)-2-((5-(2-(1-amino-3-methylbutan-2-yl)-2,6-diazaspiro[3.4]octan-6-yl)-1,2,4-triazin-6-yl)oxy)-N-ethyl-5-fluoro-N-isopropylbenzamide], the IC50 is approximately 1200 nM in the test with MEIS1 mRNA, 10.5 nM in test [1], more than 15000 nM with KO-52 cells and more than 3750 nM with MOLM14 cells.

For `CCN(C(=O)c1cc(F)ccc1Oc1nncnc1N1CCC2(C1)CN([C@@H](CCC(C)(C)N)C(C)C)C2)C(C)C` (single isomer, unassigned) [Compound 31, (*S)-2-((5-(2-(6-amino-2,6-dimethylheptan-3-yl)-2,6-diazaspiro[3.4]octan-6-yl)-1,2,4-triazin-6-yl)oxy)-N-ethyl-5-fluoro-N-isopropylbenzamide], the IC50 with MEIS1 mRNA is more than 1000 nM; in test [1] it was 2.28 nM; in the test with KO-52 cells it was more than 15000 nM; in the test with MOLM14 cells, more than 940 nM.

As to `CCN(C(=O)c1cc(F)ccc1Oc1nncnc1N1CCC2(C1)CN([C@@H](CCC(C)(C)N(C)C)C(C)C)C2)C(C)C` (single isomer, unassigned) [Compound 33, (*S)-2-((5-(2-(6-(dimethylamino)-2,6-dimethylheptan-3-yl)-2,6-diazaspiro[3.4]octan-6-yl)-1,2,4-triazin-6-yl)oxy)-N-ethyl-5-fluoro-N-isopropylbenzamide], the IC50 in the test with MEIS1 mRNA is more than 1000 nM; in test [1] it was 2.84 nM; in the test with KO-52 cells, more than 15000 nM; with MOLM14 cells, more than 940 nM.

For `CCN(C(=O)c1cc(F)ccc1Oc1nncnc1N1CCC2(C1)CN([C@H](CCN(C)CC(N)=O)C(C)C)C2)C(C)C` (single isomer, unassigned) [Compound 231, (*R)-2-((5-(2-(1-amino-2-oxoethyl)(methyl)amino)-4-methylpentan-3-yl)-2,6-diazaspiro[3.4]octan-6-yl)-1,2,4-triazin-6-yl)oxy)-N-ethyl-5-fluoro-N-isopropylbenzamide], the IC50 in the test with MEIS1 mRNA was approximately 560 nM; in test [1], 1.77 nM; in the test on MOLM14 cells it was 790 nM; with OCI-AML3 cells, 1800 nM.

For `CCN(C(=O)c1cc(F)ccc1Oc1nncnc1N1CCC2(C1)CN([C@@H](C[C@@H](C)CN(C)CCOC)C(C)C)C2)C(C)C` (single isomer, unassigned) [Compound 241, N-ethyl-5-fluoro-N-isopropyl-2-((5-(2-((3*S,5*R)-6-((2-methoxyethyl)(methyl)amino)-2,5-dimethylhexan-3-yl)-2,6-diazaspiro[3.4]octan-6-yl)-1,2,4-triazin-6-yl)oxy)benzamide fumarate], the IC50 with MEIS1 mRNA was 280 nM; in test [1] it was 1.36 nM; with MOLM14 cells it was 180 nM; with OCI-AML3 cells it was 1120 nM.

As to `CCN(C(=O)c1cc(F)ccc1Oc1nncnc1N1CCC2(C1)CN([C@@H](CCCNC(=O)NC)C(C)C)C2)C(C)C` [Compound 9, (S)—N-ethyl-5-fluoro-N-isopropyl-2-((5-(2-(2-methyl-6-(3-methylureido)hexan-3-yl)-2,6-diazaspiro[3.4]octan-6-yl)-1,2,4-triazin-6-yl)oxy)benzamide], the IC50 is 44.7 nM in test [1], more than 15000 nM in the test on KO-52 cells and more than 3750 nM with MOLM14 cells.

For `CCN(C(=O)c1cc(F)ccc1Oc1nncnc1N1CCC2(C1)CN([C@@H](CCCNC)C(C)C)C2)C(C)C` [Compound 20, (S)—N-ethyl-5-fluoro-N-isopropyl-2-((5-(2-(2-methyl-6-(methylamino)hexan-3-yl)-2,6-diazaspiro[3.4]octan-6-yl)-1,2,4-triazin-6-yl)oxy)benzamide hydrochloride], the IC50 was more than 15000 nM in the test with KO-52 cells and more than 940 nM in the test on MOLM14 cells.

Take `CCN(C(=O)c1cc(F)ccc1Oc1nncnc1N1CC2(CCN(C(CCCN(C)CCOC)C(C)C)C2)C1)C(C)C` (centres unmarked) [Compound 302, N-ethyl-5-fluoro-N-isopropyl-2-((5-(6-(6-((2-methoxyethyl)(methyl)amino)-2-methylhexan-3-yl)-2,6-diazaspiro[3.4]octan-2-yl)-1,2,4-triazin-6-yl)oxy)benzamide fumarate]: the IC50 with MEIS1 mRNA was determined as 160 nM; in test [1], 0.26 nM; with MOLM14 cells it was 97 nM; in the test with OCI-AML3 cells it was 770 nM.

With `CCN(C(=O)c1cc(F)ccc1Oc1nnc(NC)nc1N1CCC2(C1)CN([C@H](CCCN(C)CCOC)C(C)C)C2)C(C)C` [Compound 395, (R)-N-ethyl-5-fluoro-N-isopropyl-2-((5-(2-(6-((2-methoxyethyl)(methyl)amino)-2-methylhexan-3-yl)-2,6-diazaspiro[3.4]octan-6-yl)-3-(methylamino)-1,2,4-triazin-6-yl)oxy)benzamide formate], the 50% inhibitory concentration (IC50) with MEIS1 mRNA was 140 nM; in test [1], 0.2 nM; in the test with MOLM14 cells, 56 nM; in the test on OCI-AML3 cells, 280 nM.

Take `CCN(C(=O)c1cc(F)ccc1Oc1nnc(Cl)nc1N1CCC2(C1)CN([C@H](CCCN)C(C)C)C2)C(C)C` [Compound 406, (R)-2-((5-(2-(6-amino-2-methylhexan-3-yl)-2,6-diazaspiro[3.4]octan-6-yl)-3-chloro-1,2,4-triazin-6-yl)oxy)-N-ethyl-5-fluoro-N-isopropylbenzamide formate]: the IC50 came to 130 nM in the test with MEIS1 mRNA, 0.033 nM in test [1], 220 nM in the test on MOLM14 cells and 490 nM in the test on OCI-AML3 cells.

For the compound `CCN(C(=O)c1cc(F)ccc1Oc1nnc(NC)nc1N1CCC2(C1)CN([C@H](CCCN)C(C)C)C2)C(C)C` [Compound 409, (R)-2-((5-(2-(6-amino-2-methylhexan-3-yl)-2,6-diazaspiro[3.4]octan-6-yl)-3-(methylamino)-1,2,4-triazin-6-yl)oxy)-N-ethyl-5-fluoro-N-isopropylbenzamide hydrochloride], the IC50 in the test with MEIS1 mRNA is approximately 440 nM; in test [1], 0.12 nM; in the test with MOLM14 cells it was 640 nM; in the test on OCI-AML3 cells, 1850 nM.

`CCN(C(=O)c1cc(F)ccc1Oc1nnc(OC)nc1N1CCC2(C1)CN([C@H](CCCN(C)C)C(C)C)C2)C(C)C` [Compound 410, (R)-2-((5-(2-(6-(dimethylamino)-2-methylhexan-3-yl)-2,6-diazaspiro[3.4]octan-6-yl)-3-methoxy-1,2,4-triazin-6-yl)oxy)-N-ethyl-5-fluoro-N-isopropylbenzamide formate]: the IC50 worked out at 120 nM in the test on MEIS1 mRNA, 0.12 nM in test [1], 160 nM in the test with MOLM14 cells and 380 nM in the test with OCI-AML3 cells.

On to `CCN(C(=O)c1cc(F)ccc1Oc1nnc(Cl)nc1N1CCC2(C1)CN([C@H](CCCN(C)C)C(C)C)C2)C(C)C` [Compound 411, (R)-2-((3-chloro-5-(2-(6-(dimethylamino)-2-methylhexan-3-yl)-2,6-diazaspiro[3.4]octan-6-yl)-1,2,4-triazin-6-yl)oxy)-N-ethyl-5-fluoro-N-isopropylbenzamide formate], for which the IC50 was 110 nM in the test on MEIS1 mRNA, 0.33 nM in test [1], 210 nM with MOLM14 cells and 680 nM in the test with OCI-AML3 cells.

`CCN(C(=O)c1cc(F)ccc1Oc1nnc(C)nc1N1CCC2(C1)CN([C@H](CCCN)C(C)C)C2)C(C)C` [Compound 413, (R)-2-((5-(2-(6-amino-2-methylhexan-3-yl)-2,6-diazaspiro[3.4]octan-6-yl)-3-methyl-1,2,4-triazin-6-yl)oxy)-N-ethyl-5-fluoro-N-isopropylbenzamide formate]: the IC50 in the test on MEIS1 mRNA is approximately 590 nM; in test [1] it was 0.051 nM; with MOLM14 cells it was 720 nM; in the test with OCI-AML3 cells, 1490 nM.

(Values after patent US12473295B2, “Substituted straight chain spiro derivatives” (Janssen Pharmaceutica NV, priority 2019, dated 2025).)
